# What was measured:
# [1] = biological target: BCR::ABL1 kinase activity (Homo sapiens, UniProt P00519+P11274)
# Experimental: Western blotting for phosphorylated CT10 regulator of kinase-like (p-CrkL) was performed as previously described.
# [2] = tested on: Chronic Myeloid Leukemia patients; settings: CML patients; cited from earlier work
# [3] = tested on: K562 and K562 DasR cells; experiment: Intracellular uptake and retention (IUR) assay; type: in vitro ADME; settings: 2 μM C14-dasatinib, 2 h, 37 °C
# Experimental: To determine the quantity of intracellular dasatinib in leukemic cells, and the dasatinib transport functionality of ABCG2, the intracellular uptake and retention (IUR) assay was performed as previously described. K562 and K562 DasR cells were washed and incubated with 0 or 2 μM C^14-dasatinib kindly provided by Bristol Myers Squibb (New York, NY), in the presence or absence of 0.5 μM Ko143. This was performed using 2 × 10^5 cells in 2 mL of RPMI-1640 + 10% FCS, for 2 h at 37 °C. Following incubation, cells were pelleted by centrifugation for 5 min at 6800 rpm then 30 s at 13,000 rpm. Radioactivity of C^14-dasatinib was determined independently in the supernatant and cell pellet using a Tri-Carb 2810R Liquid Scintillation Counter (Perkin Elmer, Inc., Waltham, MA). The IUR was reported as ng of dasatinib incorporated per 200,000 cells. Results are expressed as paired –/ + Ko143 samples.
# Chain of BCR::ABL1 kinase activity (P11274+P00519 fused): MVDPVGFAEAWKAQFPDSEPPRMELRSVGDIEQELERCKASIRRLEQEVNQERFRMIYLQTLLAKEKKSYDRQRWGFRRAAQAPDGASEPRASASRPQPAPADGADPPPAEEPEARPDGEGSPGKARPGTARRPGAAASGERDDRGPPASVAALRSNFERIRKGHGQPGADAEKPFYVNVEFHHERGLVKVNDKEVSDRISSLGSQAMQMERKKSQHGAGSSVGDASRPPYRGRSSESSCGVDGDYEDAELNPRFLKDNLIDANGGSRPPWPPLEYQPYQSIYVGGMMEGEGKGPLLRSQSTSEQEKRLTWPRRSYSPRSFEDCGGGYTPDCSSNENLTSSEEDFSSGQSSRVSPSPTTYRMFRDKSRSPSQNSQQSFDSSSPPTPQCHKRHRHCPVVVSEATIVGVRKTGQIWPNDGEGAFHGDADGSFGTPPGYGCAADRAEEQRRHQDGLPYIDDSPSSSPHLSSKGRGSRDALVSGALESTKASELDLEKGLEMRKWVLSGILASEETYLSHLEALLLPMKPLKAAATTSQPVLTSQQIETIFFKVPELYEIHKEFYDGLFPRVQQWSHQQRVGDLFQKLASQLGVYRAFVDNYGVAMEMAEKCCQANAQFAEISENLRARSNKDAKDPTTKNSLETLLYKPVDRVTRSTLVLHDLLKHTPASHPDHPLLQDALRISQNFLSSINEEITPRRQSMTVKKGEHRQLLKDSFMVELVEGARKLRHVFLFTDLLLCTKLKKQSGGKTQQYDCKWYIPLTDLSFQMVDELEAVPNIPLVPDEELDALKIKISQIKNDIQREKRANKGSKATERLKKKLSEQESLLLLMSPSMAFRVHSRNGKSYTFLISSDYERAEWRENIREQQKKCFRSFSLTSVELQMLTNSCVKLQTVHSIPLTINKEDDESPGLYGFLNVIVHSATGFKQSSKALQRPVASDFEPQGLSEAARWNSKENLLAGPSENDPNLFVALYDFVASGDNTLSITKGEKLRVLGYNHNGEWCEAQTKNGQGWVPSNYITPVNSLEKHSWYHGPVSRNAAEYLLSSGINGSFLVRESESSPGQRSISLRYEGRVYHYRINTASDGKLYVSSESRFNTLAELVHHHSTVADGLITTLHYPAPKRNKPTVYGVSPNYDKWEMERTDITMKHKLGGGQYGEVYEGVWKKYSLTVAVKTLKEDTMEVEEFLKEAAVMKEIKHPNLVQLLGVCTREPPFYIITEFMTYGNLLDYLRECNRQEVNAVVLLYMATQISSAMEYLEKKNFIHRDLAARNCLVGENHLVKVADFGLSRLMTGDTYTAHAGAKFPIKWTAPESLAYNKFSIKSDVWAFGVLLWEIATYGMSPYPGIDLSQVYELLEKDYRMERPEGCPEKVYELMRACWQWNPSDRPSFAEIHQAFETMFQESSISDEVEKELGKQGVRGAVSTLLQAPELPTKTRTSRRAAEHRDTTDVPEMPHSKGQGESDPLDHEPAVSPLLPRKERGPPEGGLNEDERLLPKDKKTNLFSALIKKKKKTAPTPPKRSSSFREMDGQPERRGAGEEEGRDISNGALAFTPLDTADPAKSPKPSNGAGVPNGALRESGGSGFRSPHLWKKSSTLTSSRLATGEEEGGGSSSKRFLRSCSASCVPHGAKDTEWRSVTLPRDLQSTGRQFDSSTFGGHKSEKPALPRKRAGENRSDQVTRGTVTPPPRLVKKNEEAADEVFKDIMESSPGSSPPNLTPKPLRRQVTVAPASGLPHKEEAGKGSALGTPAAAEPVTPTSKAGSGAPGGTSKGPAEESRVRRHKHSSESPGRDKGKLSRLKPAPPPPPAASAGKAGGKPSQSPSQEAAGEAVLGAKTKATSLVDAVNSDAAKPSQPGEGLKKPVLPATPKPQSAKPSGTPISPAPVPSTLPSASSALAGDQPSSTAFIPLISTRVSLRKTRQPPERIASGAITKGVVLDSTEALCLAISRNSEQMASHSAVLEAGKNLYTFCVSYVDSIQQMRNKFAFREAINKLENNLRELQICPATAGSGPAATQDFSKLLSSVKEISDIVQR
structure (smiles),measurement,setting,value
COc1ccc2c3c([nH]c2c1)[C@H](CC(C)C)N1C(=O)[C@H](CCC(=O)OC(C)(C)C)NC(=O)[C@@H]1C3 [Ko143],Effect of addition of Ko143 on dasatinib IC50,"[1]; K562 25, 50 and 200 nM DasR lines",no effect
same,Effect of Ko143 on ponatinib IC50,"[1]; K562 later stage DasR intermediates with lower ABCG2 expression, and DMSO control line",no significant change
COc1cc(Nc2c(C#N)cnc3cc(OCCCN4CCN(C)CC4)c(OC)cc23)c(Cl)cc1Cl [bosutinib],"Suboptimal response, share of treated patients",[2],< 10%
Cc1nc(Nc2ncc(C(=O)Nc3c(C)cccc3Cl)s2)cc(N2CCN(CCO)CC2)n1 [dasatinib],"Suboptimal response, share of treated patients",[2],< 10%
same,Intracellular dasatinib (IUR),"[3]; K562 15 nM DasR cells, with 0.5 μM Ko143","19.39 ng/200,000 cells"
same,Dasatinib uptake (IUR),"[3]; K562 15 nM DasR cells, without Ko143","12.15 ng/200,000 cells"
same,Dasatinib uptake (IUR),"[3]; K562 control, with 0.5 μM Ko143","22.07 ng/200,000 cells"
same,Dasatinib uptake (IUR),"[3]; K562 control, without Ko143","24.56 ng/200,000 cells"
Cc1ccc(NC(=O)c2ccc(CN3CCN(C)CC3)cc2)cc1Nc1nccc(-c2cccnc2)n1 [imatinib],10 year survival rate,[2],over 83%
same,"Suboptimal response, share of treated patients",[2],10–15%
Cc1cn(-c2cc(NC(=O)c3ccc(C)c(Nc4nccc(-c5cccnc5)n4)c3)cc(C(F)(F)F)c2)cn1 [nilotinib],"Suboptimal response, share of treated patients",[2],< 10%

# — article PMC10421868, “The acquisition order of leukemic drug resistance mutations is directed by the selective fitness associated with each resistance mechanism” (Scientific Reports, 2023)
